The source of these data is patent US20170087125A1, “FLAVONOID COMPOSITIONS FOR THE TREATMENT OF CANCER” (Augusta University Research Institute, Inc., priority 2015, published 2017).

Where two headings read alike, the source gives them in different places.

A short description of this series: Pharmacokinetics in rat plasma after oral and intravenous administration. It counts as in vivo, Sprague Dawley rats. The settings on record: for half-life / AUC / Cmax / Tmax: male, Sprague-Dawley, rat, plasma, 100 mg/kg; for half-life: read-out: t1/2 half-life (converted); for Cmax / Tmax: oral; for Bioavailabilty: rat plasma, ProFine 100 mg/kg (n = 3), oral vs IV. The method, then:
Blood samples were collected at 9 time points, i.e., 0 min, 15 min, 30 min, 60 min, 2 h, 4 h, 8 h, 12 h and 24 h. Plasma levels of Luteolin, Quercetin and Kaempferol were analyzed using HPLC. […]

For `O=c1c(O)c(-c2ccc(O)cc2)oc2cc(O)cc(O)c12` [Ingredient 3, 3,5,7-trihydroxy-2-(4-hydroxyphenyl)-4H-1-benzopyran-4-one], the half-life is 2.45 h, the highest level (Cmax) was 165 ng/mL, the time to peak (Tmax) (usually the time at which the peak concentration occurs) was 4 h and the Bioavailabilty is reported as 2.89%. Further, the AUC (iv, read-out: AUC0.24 (IV)) worked out at 93800 ng·h/mL. Moreover, under “po, read-out: AUC0.24 (Oral)”, the AUC amounted to 2710 ng·h/mL.

With `O=c1cc(-c2ccc(O)c(O)c2)oc2cc(O)cc(O)c12` [Ingredient 1, 3′,4′,5,7-tetrahydroxyflavone], the half-life is 2.26 h, the highest level (Cmax) was 127 ng/mL, the Tmax stood at 1 h and the Bioavailabilty worked out at 1.30%. Besides, the AUC (iv, read-out: AUC0.24 (IV)) was determined as 90100 ng·h/mL. In addition, the AUC (po, read-out: AUC0.24 (Oral)) was 1170 ng·h/mL.

For `O=c1c(O)c(-c2ccc(O)c(O)c2)oc2cc(O)cc(O)c12` [Ingredient 2, 3,3′,4′5,7-Penthydroxyflavone], the half-life is 1.71 h; the peak concentration (Cmax) (in general, the highest concentration seen after dosing) was found to be 51.9 ng/mL; the Tmax amounted to 1 h; the Bioavailabilty was 0.91%. Moreover, the AUC (iv, read-out: AUC0.24 (IV)) was determined as 27200 ng·h/mL. Moreover, the AUC (po, read-out: AUC0.24 (Oral)) came to 248 ng·h/mL.
